For this assay, the target named is Aldo-keto reductase family 1 member B1 (Rattus norvegicus, UniProt P07943). The experiment in a line: Inhibition of rat lens aldose reductase.

The structures appear in SMILES notation.

As a reminder, the IC50 is the point on the concentration scale where inhibition reaches its midpoint. As to `COc1c(-c2ccc(O)c(O)c2)oc2c(OC)c(O)cc(O)c2c1=O`, it took 0.24 µM to reach half-maximal inhibition (IC50).

`COc1cc(O)cc2oc(-c3ccccc3)cc(=O)c12` showed an IC50 of 1000 µM.

With `COc1cc(-c2cc(=O)c3c(OC)c(OC)c(OC)c(OC)c3o2)ccc1O`, the IC50 is 18.6 µM.

For the compound `COc1c(OC)c(OC)c2c(=O)cc(-c3ccc(O)c(O)c3)oc2c1OC`, the IC50 was 0.0324 µM.

Regarding `COc1cc(-c2cc(=O)c3c(O)c(O)c(O)c(OC)c3o2)ccc1O`, half-maximal inhibition (IC50) was put at 1.2 µM. Against the preceding compound, the IC50 is about 37-fold higher.

With `COc1cc(O)c2c(=O)cc(-c3ccc(O)c(O)c3)oc2c1O`, the IC50 was 0.229 µM.

In the case of `COc1c(O)c(OC)c2c(=O)cc(-c3ccccc3)oc2c1OC`, the IC50 is 288 µM.

`O=c1cc(-c2ccccc2O)oc2cc(O)ccc12` gave an IC50 of 1.66 µM.

The compound `COc1cc2oc(-c3ccc(O)c(O)c3)c(C(C)=O)c(=O)c2c(OC)c1OC` had an IC50 of 8.91 µM.

The compound `COc1cc(-c2cc(=O)c3c(O)c(OC)c(OC)cc3o2)ccc1OC1O[C@H](CO)[C@@H](O)[C@H](O)[C@H]1O` (some centres not stated) showed an IC50 of 13.2 µM.

Regarding `COc1c(O)c(OC)c2oc(-c3ccc(O)cc3)cc(=O)c2c1O`, the IC50 is 0.407 µM.

`COc1cc2oc(-c3ccc(O)c(O)c3)cc(=O)c2c(O)c1O` gave an IC50 of 0.302 µM.

Turning to `COc1cc(OC)c2c(=O)c(OC)c(-c3ccc(O)c(O)c3)oc2c1OC`, half-maximal inhibition (IC50) was put at 0.17 µM.

`COc1c(O)c(Cc2ccccc2)c2oc(-c3ccc(O)c(O)c3)cc(=O)c2c1O` had an IC50 of 0.0339 µM.

For the compound `COc1c(O)c(OC)c2c(=O)cc(-c3ccc(O)c(O)c3)oc2c1OC`, the IC50 is 0.035 µM.

With `COc1c(O)cc(O)c2c(=O)cc(-c3ccc(O)c(O)c3)oc12`, the IC50 is 0.282 µM. Compared with the last compound, the IC50 is about 8.1-fold higher.

For the compound `COc1c(-c2ccc(O)c(O)c2)oc2c(OC)c(O)cc(OC)c2c1=O`, the half-maximal inhibitory concentration (IC50) was 0.282 µM.

As for `COc1c(OC(C)=O)c(OC(C)=O)c(OC(C)=O)c2c(=O)cc(-c3ccc(OC(C)=O)c(OC(C)=O)c3)oc12`, the IC50 was 0.302 µM. This IC50 and that of the compound before are within 1.5-fold of each other.

As to `COc1cc(-c2cc(=O)c3c(O)c(OC)c(O)c(OC)c3o2)ccc1OC1O[C@H](CO)[C@@H](O)[C@H](O)[C@H]1O` (some centres not stated), inhibition was half-maximal at 18.2 µM (IC50).

`COc1cc(-c2cc(=O)c3c(O)c(OC)c(OC4O[C@H](CO)[C@@H](O)[C@H](O)[C@H]4O)c(OC)c3o2)ccc1O` (some centres not stated) had an IC50 of 20.9 µM.

`COc1cc2oc(-c3ccc(O)c(O)c3)c(OC)c(=O)c2c(OC)c1OC`: the midpoint of inhibition, the IC50, lay at 0.269 µM.

For the compound `COc1cc(O)c2c(=O)cc(-c3cc(O)c(OC)cc3OC)oc2c1`, the IC50 was 316 µM.

With `COc1cc(-c2cc(=O)c3c(OC)c(O)c(OC)c(OC)c3o2)ccc1O`, the IC50 was 6.31 µM. Compared with the last compound, the IC50 is about 50-fold lower.

The compound `COc1cc2oc(-c3ccc(O)c(O)c3)c(OC)c(=O)c2c(OC)c1O` had an IC50 of 0.302 µM.

The compound `COc1c(O)c(O)c(O)c2c(=O)cc(-c3ccccc3)oc12` gave an IC50 of 8.13 µM. Compared with the last compound, the IC50 is about 27-fold higher.

In the case of `COc1c(O)c(O)c2c(=O)cc(-c3ccccc3)oc2c1OC`, the IC50 is 8.39 µM. The IC50 values of the last two compounds are within 1.5-fold of each other.

As for `COc1cc(-c2cc(=O)c3c(O)c(O)c(OC)c(OC)c3o2)ccc1O`, the IC50 was 110 µM.

Turning to `COc1c(O)c(O)c2c(=O)cc(-c3ccc(O)cc3)oc2c1OC`, the IC50 was 0.851 µM.

Regarding `COc1c(-c2ccc(O)c(O)c2)oc2cc(O)c(O)c(O)c2c1=O`, 0.0575 µM corresponded to half-maximal inhibition (IC50).

Regarding `COc1c(O)c(O)c2c(=O)cc(-c3ccc(O)c(O)c3)oc2c1OC`, it took 0.0646 µM to reach half-maximal inhibition (IC50).

On to `COc1c(O)cc(OC)c2c(=O)cc(-c3ccc(O)c(O)c3)oc12`, for which it took 0.0741 µM to reach half-maximal inhibition (IC50).

As to `COc1c(O)c(O)c(O)c2c(=O)cc(-c3ccc(O)c(O)c3)oc12`, inhibition was half-maximal at 0.12 µM (IC50).

Take `COc1cc2oc(-c3ccc(O)c(O)c3)cc(=O)c2c(OC)c1O`: the IC50 was 0.141 µM.

Compound `COc1cc(OC)c2c(=O)cc(-c3ccc(O)c(O)c3)oc2c1O` showed an IC50 of 0.162 µM.

`C[C@H]1OC(Oc2c(-c3ccc(O)c(O)c3)oc3cc(O)cc(O)c3c2=O)[C@@H](O)[C@@H](O)[C@@H]1O` (some centres not stated) had an IC50 of 1.17 µM.

Compound `O=c1cc(-c2ccc(O)cc2)oc2ccc(O)cc12` gave an IC50 of 5.25 µM.

`COc1cc2oc(-c3ccc(O)c(O)c3)c(OC)c(=O)c2c(O)c1O`: the IC50 was 0.813 µM.

The compound `COc1ccc(-c2cc(=O)c3c(O)c(OC)c(O)c(OC)c3o2)cc1OC` gave an IC50 of 29.5 µM. This IC50 is about 36-fold higher than that of the compound before.

`COc1cc2oc(-c3ccc(OC4O[C@H](CO)[C@@H](O)[C@H](O)[C@H]4O)cc3)cc(=O)c2c(O)c1OC` (some centres not stated): the IC50 is 16.2 µM.

`COc1cc2oc(-c3ccc(OC4O[C@H](CO)[C@@H](O)[C@H](O)[C@H]4O)c(O)c3)cc(=O)c2c(O)c1OC` (some centres not stated) gave an IC50 of 8.2 µM.

The compound `COc1c(O)c(O)c(O)c2c(=O)cc(-c3ccc(O)cc3)oc12` had an IC50 of 1.2 µM. Compared with the last compound, the IC50 is about 6.8-fold lower.

Turning to `COc1cc(O)c2c(=O)cc(-c3cc(OC)c(O)cc3OC)oc2c1`, inhibition was half-maximal at 1000 µM (IC50). Compared with the last compound, the IC50 is about 830-fold higher.

Consider `O=c1cc(-c2ccc(O)cc2O)oc2cc(O)ccc12`, for which the IC50 was 2.29 µM.

The compound `COc1cc(OC)c2c(=O)cc(-c3ccc(O)c(O)c3)oc2c1OC` had an IC50 of 0.0447 µM.

`COc1cc2oc(-c3ccc(O)c(O)c3)cc(=O)c2c(OC)c1OC` had an IC50 of 0.0912 µM.

`COc1cc(-c2cc(=O)c3c(O)c(OC)c(OC)c(OC)c3o2)ccc1O`: the IC50 was 45.7 µM.

Regarding `COc1cc(O)c2c(=O)cc(-c3ccc(O)c(O)c3)oc2c1OC`, it took 0.0776 µM to reach half-maximal inhibition (IC50). This IC50 is about 590-fold lower than that of the compound before.

The compound `O=c1cc(-c2ccc(O)c(O)c2)oc2cc(O)c(O)c(O)c12` [6-HYDROXYLUTEOLIN] had an IC50 of 0.204 µM. This IC50 is about 2.6-fold higher than that of the compound before.

Regarding `COc1c(O)cc2oc(-c3ccc(O)c(O)c3)c(OC)c(=O)c2c1O` [AXILLARIN], the half-maximal inhibitory concentration (IC50) was 0.028 µM.

On to `COc1cc2oc(-c3ccc(O)c(O)c3)c(OC)c(=O)c2c(O)c1OC` [CHRYSOSPLENOL D], for which the IC50 is 0.348 µM.

As to `COc1cc(-c2cc(=O)c3c(O)c(OC)c(OC)cc3o2)ccc1O` [CIRSILENEOL], the midpoint of inhibition, the IC50, lay at 6.76 µM. Against the preceding compound, the IC50 is about 19-fold higher.

On to `COc1cc2oc(-c3ccc(O)c(O)c3)cc(=O)c2c(O)c1OC` [CIRSILIOL], for which inhibition was half-maximal at 0.17 µM (IC50). This IC50 is about 40-fold lower than that of the compound before.

In turn, `COc1cc2oc(-c3ccc(O)cc3)cc(=O)c2c(O)c1OC` [CIRSIMARITIN] showed an IC50 of 1.41 µM. Compared with the last compound, the IC50 is about 8.3-fold higher.

`COc1ccc(-c2cc(=O)c3c(O)c(OC)c(O)c(OC)c3o2)cc1` [NEVADENSIN] showed an IC50 of 7.24 µM.

Compound `COc1c(OC)c(O)c2c(=O)cc(-c3ccc(O)c(O)c3)oc2c1OC` [SIDERITIFLAVONE] had an IC50 of 0.0389 µM.

For the compound `COc1cc(-c2cc(=O)c3c(O)c(OC)c(O)c(OC)c3o2)ccc1O` [SUDACHITIN], the concentration for half-maximal inhibition (IC50) was 4.47 µM.

The compound `COc1c(OC)c(O)c2c(=O)cc(-c3ccc(O)cc3)oc2c1OC` [XANTHOMICROL] had an IC50 of 0.537 µM.
